From ChEMBL document CHEMBL4138232, “O2-(2,4-dinitrophenyl)diazeniumdiolates derivatives: Design, synthesis, cytotoxic evaluation and reversing MDR in MCF-7/ADR cells” (Eur J Med Chem, 2018)

Assays:
MDA-MB-231 = experiment: Antiproliferative activity against human MDA-MB-231 cells after 48 hrs by MTT assay relative to control; assay type: functional, cell-based; conditions: MDA-MB-231, 48 h
[1] = target: T1, Glutathione S-transferase P (Homo sapiens, UniProt P09211); experiment: Prodrug activation in human HCT116 cells assessed as GST-Pi-mediated NO release at 5 uM after 24 hrs by nitrate reductase assay; assay type: cell-based
T1 sequence (P09211 whole entry): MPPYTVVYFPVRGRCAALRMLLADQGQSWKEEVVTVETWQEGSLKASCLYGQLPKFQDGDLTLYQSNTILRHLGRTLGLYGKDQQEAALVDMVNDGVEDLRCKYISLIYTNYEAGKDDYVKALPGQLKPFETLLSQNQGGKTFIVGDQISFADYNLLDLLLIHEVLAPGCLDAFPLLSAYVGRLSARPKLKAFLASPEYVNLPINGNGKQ

[2] = Selectivity ratio of IC50 for human A549 cells to IC50 for human MDA-MB-231 cells; assay type: functional
[3] = Selectivity ratio of IC50 for human HCT116 cells to IC50 for human MDA-MB-231 cells; assay type: functional
HCT-116 [4] = experiment: Antiproliferative activity against human HCT116 cells after 48 hrs by MTT assay relative to control; assay type: functional, cell-based; conditions: HCT-116, 48 h
[5] = target: T1, Glutathione S-transferase P; experiment: Prodrug activation in human HCT116 cells assessed as GST-Pi-mediated NO release at 5 uM after 24 hrs in presence of NO scavenger carboxy-PTIO by nitrate reductase assay; assay type: cell-based
A549 = experiment: Antiproliferative activity against human A549 cells after 48 hrs by MTT assay relative to control; assay type: functional, cell-based; conditions: A549, 48 h
MCF7 = experiment: Cytotoxicity against ADR-sensitive human MCF7 cells assessed as inhibition of cell viability after 48 hrs by MTT assay; assay type: cell-based; conditions: MCF7, 48 h
[6] = Cytotoxicity against ADR-sensitive human MCF7 cells assessed as inhibition of cell viability at 10 uM after 48 hrs by MTT assay relative to control; assay type: cell-based; conditions: read-out: INH
HCT-116 [7] = experiment: Cytotoxicity against human HCT116 cells overexpressing GST-Pi assessed as inhibition of cell viability at 10 uM after 48 hrs by MTT assay relative to control; assay type: functional; conditions: HCT-116, 48 h
Homo sapiens = species on record: Homo sapiens; experiment: Inhibition of MDR in human MCF7/ADR cells assessed as potentiation of adriamycin-induced antiproliferative activity by measuring fold reduction in adriamycin IC50 at 10 uM after 48 hrs by MTT assay; assay type: cell-based
U2OS = experiment: Antiproliferative activity against human U2OS cells after 48 hrs by MTT assay relative to control; assay type: functional, cell-based
[8] = Selectivity ratio of IC50 for human U2OS cells to IC50 for human MDA-MB-231 cells; assay type: functional
[9] = target: T1, Glutathione S-transferase P; experiment: Prodrug activation in human HCT116 cells assessed as GST-Pi-mediated NO release at 5 uM by nitrate reductase assay; assay type: cell-based
[10] = Selectivity ratio of IC50 for human MCF10A cells to IC50 for human MDA-MB-231 cells; assay type: toxicity; conditions: MCF10A cells versus MDA-MB-231 cells, read-out: Ratio IC50
[11] = target: T1, Glutathione S-transferase P; experiment: Prodrug activation in human HCT116 cells assessed as GST-Pi-mediated NO release at 5 uM after 24 hrs in presence of GST-Pi inhibitor etacrynic acid by nitrate reductase assay; assay type: cell-based
MCF-10A = experiment: Antiproliferative activity against human MCF10A cells after 48 hrs by MTT assay relative to control; assay type: cell-based

IC50 (MDA-MB-231) [µM]	Drug metabolism [1]	IC50 (HCT-116 [4]) [µM]	Drug metabolism [5]	IC50 (A549) [µM]	IC50 (U2OS) [µM]	Drug metabolism [9]	Drug metabolism [11]	Compound	Ratio IC50 [2]	Ratio IC50 [3]	IC50 (MCF7) [µM]	cytotoxicity at 48 h, 10 µM [6] [%]	inhibition at 10 µM (HCT-116 [7]) [%]	fold change (FC) (Homo sapiens)	Ratio IC50 [8]	selectivity ratio [10]	IC50 (MCF-10A) [µM]
0.66	Metabolite_Detected	1.27	Metabolite_Notdetected	1.54	2.46	Dose-dependent effect	Metabolite_Notdetected	COc1ccc(C2CC(c3cccc(Oc4cc(O/N=[N+](\[O-])N5CCOCC5)c([N+](=O)[O-])cc4[N+](=O)[O-])c3)=NN2C(C)=O)cc1OC (stereo not drawn)	2.3	1.9	22.7	13	81.2	14.3	3.7	15.3	10.1
1.44		6.46		6.11	6.13	Dose-dependent effect		COc1cc(C2CC(c3cccc(Oc4cc(O/N=[N+](\[O-])N5CCOCC5)c([N+](=O)[O-])cc4[N+](=O)[O-])c3)=NN2C(C)=O)cc(OC)c1OC (stereo not drawn)	4.2	6.5	44.3	13.3	76.2	1.53	4.2	41.2	59.4
3.85		4.44	Metabolite_Notdetected	1.87	3.86	Dose-dependent effect	Metabolite_Notdetected	CC(=O)N1N=C(c2cccc(Oc3cc(O/N=[N+](\[O-])N4CCOCC4)c([N+](=O)[O-])cc3[N+](=O)[O-])c2)CC1c1ccc(C)cc1 (stereo not drawn)	0.5	1.1	21.6	20.2	77.8	49.7	1	3.1	11.9
2.9		2.7	Metabolite_Notdetected	1.97	2.46	Dose-dependent effect	Metabolite_Notdetected	CC(=O)N1N=C(c2cccc(Oc3cc(O/N=[N+](\[O-])N4CCOCC4)c([N+](=O)[O-])cc3[N+](=O)[O-])c2)CC1c1ccc(N(C)C)cc1 (stereo not drawn)	0.7	0.9	22	21.9	78.3	33.4	0.8	5.6	16.4
2.11		5.58		2.86	3.69	Dose-dependent effect		COc1ccc(C2CC(c3cccc(Oc4cc(O/N=[N+](\[O-])N5CCOCC5)c([N+](=O)[O-])cc4[N+](=O)[O-])c3)=NN2C(C)=O)cc1 (stereo not drawn)	1.3	2.6	31.9	21.2	79.9	56.6	1.7	6.1	12.9
5.29	Metabolite_Detected	3.43	Metabolite_Notdetected	7.66	6.3		Metabolite_Notdetected	CC(=O)N1N=C(c2cccc(Oc3cc(O/N=[N+](\[O-])N4CCCCC4)c([N+](=O)[O-])cc3[N+](=O)[O-])c2)CC1c1ccc(N(C)C)cc1 (stereo not drawn)	1.4	0.6	20.2	13.4	81.3	26.6	1.2	18	95.3
